{"source": "patent US10364270B2", "about": "“Eye-care peptide, its composition and method of using the same” (PRO SUNFUN BIOTECH RESEARCH AND DEVELOPMENT CO., LTD., priority 2017, dated 2019)", "system": "HCEC cells", "assay": "MTT assay, viability of HCEC cells", "type": "cell-based, Human", "experimental": "Human corneal epithelial cell line, HCEC, was cultured in complete KSF containing keratinocyte-serum free medium, 5 ng/ml human recombinant EGF, 0.05 mg/ml bovine pituitary extract, 0.005 mg/ml insulin and 500 ng/ml hydrocortisone under 5% CO2 at 37° C.\nCells (2×10^4) in 1 ml complete KSF were seeded in 12-well plates with or without Peptide NO. 12. Seventy microliters of 5 mg/ml 3-(4,5-dimethyl-2-thiazolyl)-2,5-diphenyl-2H-tetrazolium bromide solution (MTT; Sigma) was added to each well for the indicated times and incubated at 37° C. for 3 hours, after which 700 μl 10% SDS in 0.01 N HCl was added to dissolve the MTT formazan crystals. The resultant optical density was measured spectrophotometrically at dual wavelengths, 550 and 630 nm.", "note": "Peptide text beside a SMILES is read from it."}
{"smiles": "CC(C)C[C@H](NC(=O)[C@@H]1CCCN1C(=O)[C@H](CC(N)=O)NC(=O)[C@@H](N)CCCNC(=N)N)C(=O)N[C@@H](CCC(=O)O)C(=O)N[C@@H](CCC(=O)O)C(=O)N[C@H](C(=O)O)[C@@H](C)O", "note": "[Peptide NO. 12, ArgAsnProLeuGluGluThr] (H-RNPLEET-OH; N-terminus and C-terminus assumed)", "values": [{"measurement": "viability of HCEC cells", "setting": "24 hours, 5, 10, 25 and 50 μg/ml, FIG. 3", "value": "did not significantly affect viability of HCEC cells"}, {"measurement": "viability of HCEC cells", "setting": "48 hours, 5, 10, 25 and 50 μg/ml, FIG. 4", "value": "did not significantly affect viability of HCEC cells"}]}
